These results are taken from patent US11311513B2, “Methods, agents, and compositions for the treatment of acute myeloid leukemia” (UNIVERSITY OF CINCINNATI, priority 2017, dated 2022).

The test system of one assay is NB4 cells. Nature of the assay: MTS cell viability, TET1-low control cell line. It is filed as cell-based. Particulars: up to 500 nM, 48 hrs. How it is done: (§1) FIG. 1. […] Cell viability was analyzed by MTS 48 hours post-treatment. […] TET1 expression levels were detected by qPCR 48 hrs post-treatment. […] TET1 expression levels (e) and cell viability (f) were detected 24 hrs post-treatment. *, P<0.05, two-tailed t-test. MM6, MONOMAC-6. Error bar indicates SD of triplicate experiments.
MONOMAC-6, THP-1, KOCL-48, KASUMI-1, ML-2 and NB4 cells were purchased from ATCC (Manassas, Va.), and cultured as described previously (Jiang, X., et al. Blockade of miR-150 Maturation by MLL-Fusion/MYC/LIN-28 Is Required for MLL-Associated Leukemia. Cancer Cell 22, 524-535 (2012); Li, Z., et al. miR-196b directly targets both HOXA9/MEIS1 oncogenes and FAS tumour suppressor in MLL-rearranged leukaemia. (Li, Z., et al., miR-196b directly targets both HOXA9/MEISV oncogenes and FAS tumour suppressor in MLL-rearranged leukaemia, Nat Commun 2:688 (2012)). All cell lines were tested for mycoplasma contamination yearly using a PCR Mycoplasma Test Kit (PromoKine) and were proven to be mycoplasma negative. All cell lines were authenticated through STR profiling yearly. […]

The subject of another assay is global 5hmC level. Briefly: Global 5hmC level (5hmC labeling and dot-blotting). Particulars: for global 5hmC levels: MONOMAC-6 cells. It is filed as cell-based. How it is done:
as §1
The 5-hydroxymethylcytosine (5-hmC) labeling reactions and 5hmC dot blotting were performed as described previously (Huang, H., et al. TET1 plays an essential oncogenic role in MLL-rearranged leukemia. Proc Natl Acad Sci USA 110, 11994-11999 (2013)). Briefly, 3 jig sonicated genomic DNA (100-500 bp) fragments were incubated in solution containing 50 mM Hepes buffer (pH 7.9), 25 mM MgCl2, 100 jiM UDP-6-N3-Glc, and 1 jiM beta-glucosyltransferase (f3-GT) for 1 hr at 37° C. The CLICK was performed with addition of 150 jiM dibenzocyclooctyne modified biotin into the purified DNA solution, and the reaction mixture was incubated for 2 hrs at 37° C. Six hundred nanograms of labeled genomic DNA samples were spotted on an Amersham Hybond-N+ membrane (GE Healthcare, Little Chalfont, UK). DNA was fixed to the membrane by Stratagene UV Stratalinker 2400 (auto-crosslink). The membrane was then blocked with 5% BSA and incubated with Avidin-HRP (1:40,000) (Bio-Rad, Hercules, Calif.), and then visualized by enhanced chemiluminescence.

Assay [1] has as its system 5hmC peak enrichment in the whole genome. Nature of the assay: Genome-wide 5hmC-seq in ML-2 AML cells. It is filed as cell-based, human. How it is done:
FIG. 12. […] 5hmC peak counts at different IDR cutoffs were shown. (b) Read density across 5hmC enriched regions. A unified catalog of 5hmC enriched regions was generated. Shown are heatmaps rank-ordered by reads per kilobase of exon model per million mapped reads (RPKM) of 5hmC-Seal samples minus that of the input samples. (c) Read density across all RefSeq genes. Shown are heatmaps of 5hmC read density changes across all RefSeq gene loci and 5 kb flanking regions (minus input values).
100 ng genomic DNA extracted from ML-2 cell were fragmented in 50 jiL Tagmentation buffer at 55° C. Fragmented DNA was purified by Zymo DNA clean&concentrator Kit (Zymo Research, Tustin, Calif.). Then, the selective 5hmC chemical labeling was performed in 25 jiL glucosylation buffer (50 mM HEPES buffer pH 8.0, 25 mM MgCl2) containing above fragmented DNA, 100 μM N3-UDP-Glc, 1 μM β-GT, and incubated at 37° C. for 2 hr. […] The libraries were quantified by a Qubit fluorometer (Life Technologies) and sequenced on an Illumina HiSEQ4000 sequencer with paired-end 50-bp reads.
The gene network was analyzed with Ingenuity Pathway Analysis (Qiagen). […] For 5hmC sequencing analysis, illumina sequencing reads were mapped to UCSC hg19 human reference genome using bowtie program. Only uniquely mapped reads were retained for the following data analysis. […]

Molecules are shown by their SMILES.

With `COc1cc(C(c2cc3c(cc2O)OCO3)N2CCCC2)cc(OC)c1OC` (stereo not shown) [NSC-370284, 6-(1-Pyrrolidinyl(3,4,5-trimethoxyphenyl)methyl)-1,3-benzodioxol-5-ol], in the assay on NB4 cells, the “inhibition of viability of NB4 cells” value is listed as “no significant inhibition”. For the same compound, the “global 5hmC level” value in the assay on global 5hmC level (300 nM, THP-1 and MONOMAC-6 cells) was “significantly repressed”. The “global 5hmC levels” value with global 5hmC level is “significantly reduced”. Further, the “reduction of 5hmC peak enrichment in the whole genome” value in assay [1] is recorded as “around 75%”.

As to `CC(C)(C)c1cc(C(c2cc3c(cc2O)OCO3)N2CCOCC2)cc(C(C)(C)C)c1O` (stereo not shown) [UC-514321, 6-{[4-Hydroxy-3,5-bis(2-methyl-2-propanyl)phenyl](4-morpholinyl)methyl}-1,3-benzodioxol-5-ol], in the assay on NB4 cells, the “inhibition of viability of NB4 cells” value is “no inhibitory effect”. Also, the “global 5hmC levels” value in the assay on global 5hmC level is reported as “significantly reduced”. Besides, in assay [1], the “reduction of 5hmC peak enrichment in the whole genome” value was “around 75%”.
